Measured values: article PMC9898036, “VIP152 is a selective CDK9 inhibitor with pre-clinical in vitro and in vivo efficacy in chronic lymphocytic leukemia” (Leukemia, 2022)

Experiments:
OSU-CLL = experiment: MTS proliferation assay; type: cell-based; settings: Homo sapiens, 24, 48, and 72 h
Adrenergic α1B = Adrenergic α1B (Rattus norvegicus, UniProt P15823); experiment: Eurofins Diversity Panel; type: binding; settings: Conc. 10 μM
[1] = target: Androgen (Testosterone) AR (Rattus norvegicus, UniProt P15207); experiment: Eurofins Diversity Panel; type: binding; settings: Conc. 10 μM
[2] = tested on: Calcium Channel L-Type, Benzothiazepine; experiment: Eurofins Diversity Panel; type: binding; settings: rat, Conc. 10 μM
Dopamine D2S = Dopamine D2S (Homo sapiens, UniProt P14416); experiment: Eurofins Diversity Panel; type: binding; settings: hum, Conc. 10 μM
Glutamate, NMDA, Agonism = experiment: Eurofins Diversity Panel; type: binding; settings: rat, Conc. 10 μM
Histamine H2 = Histamine H2 (Homo sapiens, UniProt P25021); experiment: Eurofins Diversity Panel; type: binding; settings: hum, Conc. 10 μM
Histamine H3 = Histamine H3 (Homo sapiens, UniProt Q9Y5N1); experiment: Eurofins Diversity Panel; type: binding; settings: hum, Conc. 10 μM
SGK = SGK (Homo sapiens, UniProt O00141); experiment: KINOMEscan: SGK; type: binding; settings: 100 nM, read-out: Percent Control
SGK3 = SGK3 (Homo sapiens, UniProt Q96BR1); experiment: KINOMEscan: SGK3; type: binding; settings: 100 nM, read-out: Percent Control
SIK2 = SIK2 (Homo sapiens, UniProt Q9H0K1); experiment: KINOMEscan: SIK2; type: binding; settings: 100 nM, read-out: Percent Control
TAOK1 = TAOK1 (Homo sapiens, UniProt Q7L7X3); experiment: KINOMEscan: TAOK1; type: binding; settings: 100 nM, read-out: Percent Control
TNK1 = TNK1 (Homo sapiens, UniProt Q13470); experiment: KINOMEscan: TNK1; type: binding; settings: 100 nM, read-out: Percent Control
TSSK1B = TSSK1B (Homo sapiens, UniProt Q9BXA7); experiment: KINOMEscan: TSSK1B; type: binding; settings: 100 nM, read-out: Percent Control
TYRO3 = TYRO3 (Homo sapiens, UniProt Q06418); experiment: KINOMEscan: TYRO3; type: binding; settings: 100 nM, read-out: Percent Control
WEE2 = WEE2 (Homo sapiens, UniProt P0C1S8); experiment: KINOMEscan: WEE2; type: binding; settings: 100 nM, read-out: Percent Control
ACVR1B = ACVR1B (Homo sapiens, UniProt P36896); experiment: KINOMEscan: ACVR1B; type: binding; settings: 1000 nM, read-out: Percent Control
ADCK4 = ADCK4 (Homo sapiens, UniProt Q96D53); experiment: KINOMEscan: ADCK4; type: binding; settings: 1000 nM, read-out: Percent Control
AURKC = AURKC (Homo sapiens, UniProt Q9UQB9); experiment: KINOMEscan: AURKC; type: binding; settings: 1000 nM, read-out: Percent Control
BLK = BLK (Homo sapiens, UniProt P51451); experiment: KINOMEscan: BLK; type: binding; settings: 1000 nM, read-out: Percent Control
BMPR2 = BMPR2 (Homo sapiens, UniProt Q13873); experiment: KINOMEscan: BMPR2; type: binding; settings: 1000 nM, read-out: Percent Control
BMX = BMX (Homo sapiens, UniProt P51813); experiment: KINOMEscan: BMX; type: binding; settings: 1000 nM, read-out: Percent Control
CAMK1D = CAMK1D (Homo sapiens, UniProt Q8IU85); experiment: KINOMEscan: CAMK1D; type: binding; settings: 1000 nM, read-out: Percent Control
CAMK2G = CAMK2G (Homo sapiens, UniProt Q13555); experiment: KINOMEscan: CAMK2G; type: binding; settings: 1000 nM, read-out: Percent Control
CDK8 = CDK8 (Homo sapiens, UniProt P49336); experiment: KINOMEscan: CDK8; type: binding; settings: 1000 nM, read-out: Percent Control
CDKL5 = CDKL5 (Homo sapiens, UniProt O76039); experiment: KINOMEscan: CDKL5; type: binding; settings: 1000 nM, read-out: Percent Control
CSNK1G3 = CSNK1G3 (Homo sapiens, UniProt Q9Y6M4); experiment: KINOMEscan: CSNK1G3; type: binding; settings: 1000 nM, read-out: Percent Control
CSNK2A1 = CSNK2A1 (Homo sapiens, UniProt P68400); experiment: KINOMEscan: CSNK2A1; type: binding; settings: 1000 nM, read-out: Percent Control
CTK = CTK (Homo sapiens, UniProt P42679); experiment: KINOMEscan: CTK; type: binding; settings: 1000 nM, read-out: Percent Control
EGFR(L858R,T790M) = EGFR(L858R,T790M) (Homo sapiens, UniProt P00533, L858R/T790M); experiment: KINOMEscan: EGFR(L858R,T790M); type: binding; settings: 1000 nM, read-out: Percent Control
EIF2AK1 = EIF2AK1 (Homo sapiens, UniProt Q9BQI3); experiment: KINOMEscan: EIF2AK1; type: binding; settings: 1000 nM, read-out: Percent Control
EPHA7 = EPHA7 (Homo sapiens, UniProt Q15375); experiment: KINOMEscan: EPHA7; type: binding; settings: 1000 nM, read-out: Percent Control
ERK5 = ERK5 (Homo sapiens, UniProt Q13164); experiment: KINOMEscan: ERK5; type: binding; settings: 1000 nM, read-out: Percent Control
KIT-autoinhibited = KIT-autoinhibited (Homo sapiens, UniProt P10721); experiment: KINOMEscan: KIT-autoinhibited; type: binding; settings: 1000 nM, read-out: Percent Control
LATS1 = LATS1 (Homo sapiens, UniProt O95835); experiment: KINOMEscan: LATS1; type: binding; settings: 1000 nM, read-out: Percent Control
LIMK1 = LIMK1 (Homo sapiens, UniProt P53667); experiment: KINOMEscan: LIMK1; type: binding; settings: 1000 nM, read-out: Percent Control
LIMK2 = LIMK2 (Homo sapiens, UniProt P53671); experiment: KINOMEscan: LIMK2; type: binding; settings: 1000 nM, read-out: Percent Control
MAP4K2 = MAP4K2 (Homo sapiens, UniProt Q12851); experiment: KINOMEscan: MAP4K2; type: binding; settings: 1000 nM, read-out: Percent Control
MARK1 = MARK1 (Homo sapiens, UniProt Q9P0L2); experiment: KINOMEscan: MARK1; type: binding; settings: 1000 nM, read-out: Percent Control
MARK2 = MARK2 (Homo sapiens, UniProt Q7KZI7); experiment: KINOMEscan: MARK2; type: binding; settings: 1000 nM, read-out: Percent Control
MERTK = MERTK (Homo sapiens, UniProt Q12866); experiment: KINOMEscan: MERTK; type: binding; settings: 1000 nM, read-out: Percent Control
MET = MET (Homo sapiens, UniProt P08581); experiment: KINOMEscan: MET; type: binding; settings: 1000 nM, read-out: Percent Control

Sequence of MERTK (Q12866 21-999): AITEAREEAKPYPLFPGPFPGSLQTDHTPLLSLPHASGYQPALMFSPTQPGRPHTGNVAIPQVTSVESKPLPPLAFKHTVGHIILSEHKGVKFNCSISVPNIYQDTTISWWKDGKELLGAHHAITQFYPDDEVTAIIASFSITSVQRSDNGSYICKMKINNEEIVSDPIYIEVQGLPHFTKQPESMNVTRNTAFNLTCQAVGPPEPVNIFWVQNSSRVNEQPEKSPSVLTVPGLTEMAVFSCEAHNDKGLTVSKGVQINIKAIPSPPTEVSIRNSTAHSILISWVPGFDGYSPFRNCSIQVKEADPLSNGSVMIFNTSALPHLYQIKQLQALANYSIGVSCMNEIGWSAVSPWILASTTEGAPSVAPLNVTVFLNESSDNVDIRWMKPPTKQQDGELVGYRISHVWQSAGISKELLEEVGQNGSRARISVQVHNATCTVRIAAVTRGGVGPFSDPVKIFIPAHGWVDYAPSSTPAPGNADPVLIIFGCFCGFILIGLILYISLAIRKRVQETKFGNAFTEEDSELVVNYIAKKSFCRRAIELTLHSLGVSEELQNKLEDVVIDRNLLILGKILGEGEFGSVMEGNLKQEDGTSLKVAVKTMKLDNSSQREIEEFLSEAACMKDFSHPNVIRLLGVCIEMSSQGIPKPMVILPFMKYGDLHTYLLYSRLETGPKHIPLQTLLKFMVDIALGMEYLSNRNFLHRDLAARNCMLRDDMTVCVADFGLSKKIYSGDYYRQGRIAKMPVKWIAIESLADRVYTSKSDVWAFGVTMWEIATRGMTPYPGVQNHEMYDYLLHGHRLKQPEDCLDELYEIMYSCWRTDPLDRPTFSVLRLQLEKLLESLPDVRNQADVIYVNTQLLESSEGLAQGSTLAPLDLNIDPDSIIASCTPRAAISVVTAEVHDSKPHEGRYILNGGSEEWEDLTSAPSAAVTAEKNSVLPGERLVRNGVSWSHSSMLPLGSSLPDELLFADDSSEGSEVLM
Sequence of ERK5 (Q13164 whole entry): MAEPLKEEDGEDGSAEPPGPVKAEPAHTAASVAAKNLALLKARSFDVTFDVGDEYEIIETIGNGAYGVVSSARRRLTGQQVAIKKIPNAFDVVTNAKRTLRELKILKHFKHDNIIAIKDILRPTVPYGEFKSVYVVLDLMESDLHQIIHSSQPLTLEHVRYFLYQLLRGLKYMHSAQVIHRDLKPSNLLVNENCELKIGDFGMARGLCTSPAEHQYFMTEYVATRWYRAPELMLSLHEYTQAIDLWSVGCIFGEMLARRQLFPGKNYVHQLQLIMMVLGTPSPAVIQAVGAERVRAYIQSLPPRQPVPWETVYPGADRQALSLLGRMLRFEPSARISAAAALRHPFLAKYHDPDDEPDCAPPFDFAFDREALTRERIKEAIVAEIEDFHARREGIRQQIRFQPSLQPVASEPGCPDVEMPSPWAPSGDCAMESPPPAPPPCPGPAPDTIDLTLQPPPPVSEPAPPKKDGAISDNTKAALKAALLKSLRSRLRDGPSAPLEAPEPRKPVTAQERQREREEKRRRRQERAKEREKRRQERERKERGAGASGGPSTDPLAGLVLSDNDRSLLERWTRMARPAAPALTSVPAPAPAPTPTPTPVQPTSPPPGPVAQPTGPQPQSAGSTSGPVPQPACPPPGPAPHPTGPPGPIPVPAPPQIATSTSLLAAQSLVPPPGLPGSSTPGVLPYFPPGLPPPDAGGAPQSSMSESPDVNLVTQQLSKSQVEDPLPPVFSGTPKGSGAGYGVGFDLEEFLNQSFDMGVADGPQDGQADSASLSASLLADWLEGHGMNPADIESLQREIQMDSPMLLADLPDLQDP
Sequence of ADCK4 (Q96D53 whole entry): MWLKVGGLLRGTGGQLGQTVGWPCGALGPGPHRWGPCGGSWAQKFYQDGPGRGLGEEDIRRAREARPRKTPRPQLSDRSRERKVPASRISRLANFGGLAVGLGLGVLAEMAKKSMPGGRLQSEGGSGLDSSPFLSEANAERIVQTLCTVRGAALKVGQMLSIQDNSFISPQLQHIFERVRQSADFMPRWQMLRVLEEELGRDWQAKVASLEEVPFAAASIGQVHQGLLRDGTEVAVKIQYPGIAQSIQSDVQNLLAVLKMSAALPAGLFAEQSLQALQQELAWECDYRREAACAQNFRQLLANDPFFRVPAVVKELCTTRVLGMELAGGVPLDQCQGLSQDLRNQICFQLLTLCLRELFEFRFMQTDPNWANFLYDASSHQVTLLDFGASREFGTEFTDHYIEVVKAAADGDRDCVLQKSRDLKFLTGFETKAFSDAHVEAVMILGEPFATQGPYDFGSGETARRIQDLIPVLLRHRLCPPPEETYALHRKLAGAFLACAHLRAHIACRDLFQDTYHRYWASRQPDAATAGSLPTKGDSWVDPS
Sequence of LATS1 (O95835 whole entry): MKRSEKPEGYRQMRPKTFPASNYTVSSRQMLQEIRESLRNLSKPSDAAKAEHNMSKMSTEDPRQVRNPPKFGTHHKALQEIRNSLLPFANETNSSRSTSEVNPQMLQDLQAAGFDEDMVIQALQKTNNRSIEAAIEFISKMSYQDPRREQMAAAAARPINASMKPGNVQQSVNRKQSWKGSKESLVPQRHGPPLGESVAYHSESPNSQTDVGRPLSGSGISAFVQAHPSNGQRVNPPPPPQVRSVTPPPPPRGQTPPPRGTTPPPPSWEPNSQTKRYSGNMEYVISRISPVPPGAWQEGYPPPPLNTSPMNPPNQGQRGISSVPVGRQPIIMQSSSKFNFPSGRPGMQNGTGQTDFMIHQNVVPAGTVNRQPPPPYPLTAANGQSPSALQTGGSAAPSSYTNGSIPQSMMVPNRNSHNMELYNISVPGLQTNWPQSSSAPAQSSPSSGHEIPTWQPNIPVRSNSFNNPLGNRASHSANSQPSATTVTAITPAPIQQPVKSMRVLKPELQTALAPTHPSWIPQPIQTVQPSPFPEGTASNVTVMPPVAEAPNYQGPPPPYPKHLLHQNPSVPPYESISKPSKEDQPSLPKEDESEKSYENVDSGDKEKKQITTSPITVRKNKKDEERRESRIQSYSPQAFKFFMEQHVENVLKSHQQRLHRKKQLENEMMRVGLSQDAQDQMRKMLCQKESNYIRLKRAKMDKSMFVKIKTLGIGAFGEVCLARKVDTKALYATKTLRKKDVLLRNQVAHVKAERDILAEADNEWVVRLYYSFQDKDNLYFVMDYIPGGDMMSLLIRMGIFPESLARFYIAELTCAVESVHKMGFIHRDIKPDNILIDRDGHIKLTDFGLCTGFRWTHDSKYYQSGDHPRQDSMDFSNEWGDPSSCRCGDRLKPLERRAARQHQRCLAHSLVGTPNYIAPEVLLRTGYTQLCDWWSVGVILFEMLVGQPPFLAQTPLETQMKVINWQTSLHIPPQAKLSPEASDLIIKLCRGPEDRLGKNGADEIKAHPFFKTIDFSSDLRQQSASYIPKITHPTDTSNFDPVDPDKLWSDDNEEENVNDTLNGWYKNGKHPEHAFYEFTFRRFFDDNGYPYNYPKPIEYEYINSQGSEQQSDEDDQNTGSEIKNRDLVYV
Sequence of Dopamine D2S (P14416 1-414 isoform P14416-2): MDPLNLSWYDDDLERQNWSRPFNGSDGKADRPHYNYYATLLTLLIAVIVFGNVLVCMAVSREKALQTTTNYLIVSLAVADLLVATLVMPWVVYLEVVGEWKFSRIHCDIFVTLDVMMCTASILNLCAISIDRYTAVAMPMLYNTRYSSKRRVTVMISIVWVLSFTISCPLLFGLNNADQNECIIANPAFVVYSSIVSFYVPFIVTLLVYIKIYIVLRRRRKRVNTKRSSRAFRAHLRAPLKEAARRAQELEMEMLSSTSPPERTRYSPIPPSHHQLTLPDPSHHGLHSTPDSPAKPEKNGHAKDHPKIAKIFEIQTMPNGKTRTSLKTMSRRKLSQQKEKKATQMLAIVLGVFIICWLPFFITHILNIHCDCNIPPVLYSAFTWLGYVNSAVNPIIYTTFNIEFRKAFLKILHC
Sequence of BLK (P51451 whole entry): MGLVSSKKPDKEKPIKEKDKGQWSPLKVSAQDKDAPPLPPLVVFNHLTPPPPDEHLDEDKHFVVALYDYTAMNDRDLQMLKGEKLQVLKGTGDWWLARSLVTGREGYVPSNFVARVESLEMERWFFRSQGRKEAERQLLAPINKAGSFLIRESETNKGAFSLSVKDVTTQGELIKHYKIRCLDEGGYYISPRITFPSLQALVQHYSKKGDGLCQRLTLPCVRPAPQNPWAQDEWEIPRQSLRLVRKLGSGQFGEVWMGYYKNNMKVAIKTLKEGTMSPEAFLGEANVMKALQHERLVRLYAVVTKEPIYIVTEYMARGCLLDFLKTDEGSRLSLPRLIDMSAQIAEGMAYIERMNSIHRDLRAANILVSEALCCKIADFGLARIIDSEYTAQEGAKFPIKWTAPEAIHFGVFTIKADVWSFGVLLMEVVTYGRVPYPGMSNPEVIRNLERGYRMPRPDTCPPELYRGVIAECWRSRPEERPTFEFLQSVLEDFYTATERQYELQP
Sequence of WEE2 (P0C1S8 whole entry): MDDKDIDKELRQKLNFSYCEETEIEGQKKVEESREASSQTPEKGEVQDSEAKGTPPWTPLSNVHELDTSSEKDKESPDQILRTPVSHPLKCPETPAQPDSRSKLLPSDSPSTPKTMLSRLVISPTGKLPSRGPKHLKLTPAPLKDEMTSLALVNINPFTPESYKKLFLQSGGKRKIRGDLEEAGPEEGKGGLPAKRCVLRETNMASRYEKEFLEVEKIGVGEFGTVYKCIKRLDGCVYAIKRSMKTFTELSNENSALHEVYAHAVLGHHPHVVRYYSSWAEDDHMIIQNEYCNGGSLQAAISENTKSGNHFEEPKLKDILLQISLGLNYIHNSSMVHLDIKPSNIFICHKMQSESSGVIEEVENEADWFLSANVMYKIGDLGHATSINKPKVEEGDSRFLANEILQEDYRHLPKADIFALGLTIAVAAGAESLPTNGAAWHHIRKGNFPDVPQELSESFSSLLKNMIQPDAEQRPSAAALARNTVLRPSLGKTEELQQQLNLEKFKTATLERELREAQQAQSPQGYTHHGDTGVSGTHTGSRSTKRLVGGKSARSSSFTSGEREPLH

Work on `COc1cc(F)ccc1-c1cc(Nc2cc(CS(C)(=N)=O)ccn2)ncc1F` (stereo not drawn) [VIP152] yielded an IC50 (OSU-CLL) of roughly 100 nM, an inhibition at 10 µM (Adrenergic α1B) of 18% and an inhibition at 10 µM [1] of 35%. The “% Inh.” value [2] was 16%, the inhibition at 10 µM (Dopamine D2S) was 15% and the “% Inh.” value (Glutamate, NMDA, Agonism) was 3%. The inhibition at 10 µM (Histamine H2) was 23%, the inhibition at 10 µM (Histamine H3) was -4% and the remaining binding at 0.1 µM (SGK) was 100%. The remaining binding at 0.1 µM (SGK3) was 100%, the remaining binding at 0.1 µM (SIK2) was 63% and the remaining binding at 0.1 µM (TAOK1) was 92%. The remaining binding at 0.1 µM (TNK1) was 100%, the remaining binding at 0.1 µM (TSSK1B) was 78% and the remaining binding at 0.1 µM (TYRO3) was 100%. The remaining binding at 0.1 µM (WEE2) was 100%, the remaining binding at 1 µM (ACVR1B) was 96% and the remaining binding at 1 µM (ADCK4) was 82%. For the same molecule, the remaining binding at 1 µM (AURKC) was 38%, the remaining binding at 1 µM (BLK) was 76% and the remaining binding at 1 µM (BMPR2) was 93%. It also gave a remaining binding at 1 µM (BMX) of 3.8%, a remaining binding at 1 µM (CAMK1D) of 99% and a remaining binding at 1 µM (CAMK2G) of 78%. The remaining binding at 1 µM (CDK8) was 93%, the remaining binding at 1 µM (CDKL5) was 90% and the remaining binding at 1 µM (CSNK1G3) was 97%. For the same molecule, the remaining binding at 1 µM (CSNK2A1) was 97%, the remaining binding at 1 µM (CTK) was 84% and the remaining binding at 1 µM (EGFR(L858R,T790M)) was 81%. The remaining binding at 1 µM (EIF2AK1) was 100%, the remaining binding at 1 µM (EPHA7) was 100% and the remaining binding at 1 µM (ERK5) was 95%. The remaining binding at 1 µM (KIT-autoinhibited) was 100%, the remaining binding at 1 µM (LATS1) was 62% and the remaining binding at 1 µM (LIMK1) was 92%. The remaining binding at 1 µM (LIMK2) was 91%, the remaining binding at 1 µM (MAP4K2) was 26% and the remaining binding at 1 µM (MARK1) was 89%. The remaining binding at 1 µM (MARK2) was 81%, the remaining binding at 1 µM (MERTK) was 58% and the remaining binding at 1 µM (MET) was 26%.
